The experiment concerns Plasmodium falciparum. Description: GSK_TCMDC: Inhibition of Plasmodium falciparum 3D7 in whole erythrocytes, using parasite LDH activity as an index of growth. Type of experiment: functional, organism-based. The following applies: Plasmodium falciparum, 3D7.

Molecules are shown by their SMILES.

The values below come from ChEMBL document CHEMBL1157539, “Thousands of chemical starting points for antimalarial lead identification” (Nature, 2010).

Take `CN(C(=O)c1ccc(Br)cc1)c1ccccc1[N+](=O)[O-]`: the XC50 was 926 nM.
Consider `Cc1cccc2nc(-c3ccc(-c4cccc(NC(=O)c5cnn6cccnc56)c4)cc3)[nH]c12`, for which the XC50 turned out to be 872 nM.
With `COc1cc(/C=C/C(=O)NCC(CCNc2cc(=O)c3ccccc3[nH]2)NCc2cc(Br)cc(Br)c2)cc(OC)c1` (stereo not given) the figure was 915 nM.
Turning to `CN(C)c1nc2cc(-n3cnc4cc(-c5ccc(Cl)cc5)sc4c3=O)ccc2n1CCCN1CCCC1`, the XC50 was found to be 848 nM.
For the compound `COc1ccc(NC(=O)CCNc2cc(C)nc(Nc3ccccc3)n2)cc1`, the XC50 worked out at 1100 nM.
In turn, `COc1cc(NC(=O)c2ccc3oc4ccccc4c3c2)ccc1OCCN1CCCCC1` yielded an XC50 of 924 nM.
With `COc1cccc(OC)c1CN1CCC(N(C)CCCCCCCCN2CCC(OC(=O)Nc3ccccc3-c3ccccc3)CC2)CC1` the figure was 458 nM.
Compound `CCCCC(=O)Nc1nonc1-c1ccc(OCC)c(OCC)c1` returned an XC50 of 912 nM.
With `CC(C)(C(=O)Nc1ccc(C2CCC(NCC3CC3)CC2)c(Cl)c1)c1cccc(OC(F)F)c1` (stereo not given) the figure was 968 nM.
With `COC(=O)c1ccc(CCCNCC(O)c2cccc(C(F)(F)F)c2)cc1` (stereo not given) the figure was 803 nM; with `CCCCCc1ccc(N2C(N)=NC(N)=NC2(C)C)cc1`, 131 nM; with `COc1ccc(NC(=O)Nc2ccc(-c3ccccc3)cc2Cl)cc1N1CCN(C)CC1`, 875 nM.
On to `CN(C)c1ccc(C=C2SC(=O)N=C2Nc2ccccc2)cc1`, for which the XC50 worked out at 32.1 nM.
With `CCCN(CC1CC1)c1ncc(-c2cccc(CNCc3ccccc3O)c2)cn1` the figure was 700 nM; with `COc1cc2nc(C)nc(Nc3ccc4c(ccn4Cc4ccccc4)c3)c2cc1OC`, 556 nM.
The compound `CC(C)c1cc(Oc2c(I)cc(CCNC(=N)N)cc2I)ccc1O` yielded an XC50 of 788 nM.
With `CCCCCCn1c2c(c(=N)c3c1CCC3)CCCC2` the figure was 291 nM; with `CC(C)N1CCN(c2ccc(OCCCN3CCN(c4cccc(Cl)c4Cl)CC3)c(C(F)(F)F)c2)CC1`, 810 nM.
With `COc1ccc(NC(=O)Nc2ccc(-c3ccccc3)cc2)cc1Cn1nc(Cl)c(N2CCCNCC2)cc1=O` the figure was 364 nM; with `CC(=O)Nc1ccc(OCCCN(Cc2ccccc2OC(F)(F)F)c2ccc(C(F)(F)F)c(C#N)c2)c(Cl)c1`, 813 nM.
On to `CN(CC(=O)Nc1ccc(F)cc1)C(=O)c1ccc(-c2ccc(F)cc2)o1`, for which the XC50 amounted to 934 nM.
With `Cc1sc(N2CCN(C)CC2)nc1C(=O)Nc1ccc(F)cc1C(F)(F)F` the figure was 1070 nM.
With `Cn1nc(-c2ccc(CN[C@@H]3CCc4ccc(O)cc43)cc2)c2cnc(NC3CCCC3)nc21` the figure was 1120 nM; with `O=C(NCc1ccc(Cl)c(Cl)c1)[C@H]1CNCCN1C(=O)c1ccccc1`, 955 nM; with `Fc1ccc(-c2cc(NCCCn3ccnc3)nc(-c3cccnc3)n2)cc1`, 974 nM.
In the case of `CN1CCN(c2ccnc3ccc(NC(=O)Nc4ccc(-c5ccncc5)c(C(F)(F)F)c4)cc23)CC1`, the XC50 turned out to be 823 nM.
With `CCN(c1ccccc1)S(=O)(=O)c1ccc(NC(=O)c2cc(-c3cc(C)ccc3O)n[nH]2)cc1` the figure was 767 nM; with `COc1ccc(NC(=O)[C@H](CC(C)C)Nc2cc(C)nc(NCCc3cccs3)n2)cc1`, 964 nM.
With `CCCc1cc(OC)c(C[C@@H]2c3cc(O)c(Cl)cc3CCN2C)cc1OC` the figure was 722 nM; with `N#Cc1ccc(CNCCCCCCCNCc2ccc(-c3ccccc3)cc2)cc1`, 970 nM; with `O=C(/C=C/c1ccc(Cl)c(Cl)c1)NCCCCCN1CCC(NC(=O)c2cc(Cl)ccc2F)CC1`, 1160 nM.
Consider `Cc1ccc(F)cc1S(=O)(=O)Nc1ccc(CCN2CCC(N3CCCCC3)CC2)cc1`, for which the XC50 amounted to 719 nM.
With `CCCCCN1CCCCC(NS(=O)(=O)c2ccc(C(=O)Nc3cccc(C(F)(F)F)c3)cc2)C1` (stereo not given) the figure was 750 nM.
With `NC(=O)c1sc(-n2cnc3ccccc32)cc1OCc1ccccc1[N+](=O)[O-]` the figure was 702 nM.
On to `CN(C)CCNC(=O)c1csc(Nc2ccc(Cl)c(Cl)c2)n1`, for which the XC50 came to 225 nM.
